Assay results: article PMC12040169 (PLOS Biology, 2025)

Assay: in vitro
Conditions: human, hela cells, % viability

SMILES	viability at 28.5 h, 10 µM [%]
Cc1ccc(-n2c(SCC(=O)NCc3ccccc3)nnc2-c2ccccc2O)c(C)c1 [CBK268892]	91.5
COc1ccc(Cl)cc1NC(=O)C1CC(=O)N=C(N2CCOCC2)N1 (stereo not shown) [CBK268893]	100
O=C1c2cccc3cccc(c23)C(=O)N1CCCSc1nnc[nH]1 [CBK268894]	66.4
COc1ccc(N2C(=O)CC(n3c(CCCCO)nc4ccccc43)C2=O)cc1 (stereo not shown) [CBK268895]	107
Cc1cc(C)c(C)c(S(=O)(=O)NCCCC(=O)O)c1C [CBK268898]	83.8
COc1ccc(Cl)c(NC(=O)NCCN2CCN(c3ccccc3)CC2)c1 [CBK268899]	90.7
COc1ccccc1NS(=O)(=O)c1ccc2c(c1)C1C=CCC1C(c1ccc(C(=O)O)cc1)N2 (stereo not shown) [CBK268903]	101
CSc1nsc(SCC(=O)c2ccc3c(c2)OCCO3)n1 [CBK268904]	108
Cc1ccc(-n2c(SCC(=O)Nc3ccccc3F)nnc2-c2ccccc2O)c(C)c1 [CBK268905]	88.6
CSc1nc(-n2nc(C)cc2C)c2c3c(sc2n1)COC(C)(C)C3 [CBK268906]	89.7
Cc1cccnc1NC(=S)NCc1ccco1 [CBK268907]	103
O=C(NC(=S)Nc1ccc2[nH]c(=O)[nH]c2c1)c1ccc(OCc2ccccc2)cc1 [CBK268908]	83.8
COc1ccc(C(=O)c2ccc(N3CCN(C4CC(=O)NC4=O)CC3)cc2)cc1F (stereo not shown) [CBK268909]	94.2
Cc1ccc(Cn2nc(C)c(NC(=O)c3nc4ncccn4n3)c2C)cc1 [CBK268912]	90.9
Cc1c(Br)c([N+](=O)[O-])nn1C(C)C(=O)Nc1sc2c(c1C(N)=O)CCCC2 (stereo not shown) [CBK268914]	88.1
O=C(O)c1cn(C2CC2)c2cc(N3CCN(C(=S)Nc4ccc5c(c4)OCCO5)CC3)c(F)cc2c1=O [CBK268916]	90.9
CCOC(=O)c1ccc(NC(=O)c2ccccc2-c2nc(-c3ccccc3Cl)no2)cc1 [CBK268919]	111
CSc1ncc(Cl)c(C(=O)Nc2nnc(C)s2)n1 [CBK268920]	90.1
CCC(C)NC(=O)c1ccc2nccnc2c1 (stereo not shown) [CBK268921]	89.4
NC(=O)CSc1nc(NCc2ccccc2)nc(N2CCOCC2)n1 [CBK268923]	93.3
COc1ccc(N2C(=O)CC(N3CCN(c4ccc(C(=O)c5cccnc5)cc4)CC3)C2=O)cc1 (stereo not shown) [CBK268924]	92.7
O=C(CN1CCCC1)Nc1sc2c(c1C(=O)NCc1ccccc1)CCCC2 [CBK268926]	105

SMILES	viability at 28.5 h, 10 µM [%]
N=c1n(CCCOc2ccccc2Cl)c2ccccc2n1CC(N)=O [CBK268927C]	106
O=C(COc1ccc2oc3ccccc3c2c1)c1ccccc1 [CBK268931]	99.5
NC(=O)c1ccc(NC(=O)CCCc2nc(-c3ccccc3Cl)no2)cc1 [CBK268932]	103
Cn1c(=O)c2c(ncn2CCCn2cnc3c2c(=O)n(C)c(=O)n3C)n(C)c1=O [CBK268933]	106
O=C(c1ccncc1)c1ccc(N2CCN(C3CC(=O)N(Cc4ccccc4)C3=O)CC2)cc1 (stereo not shown) [CBK268934]	106
NS(=O)(=O)c1ccc(NCc2ccccc2OCc2ccccc2F)cc1 [CBK268935]	91.8
Cc1ccc(S(=O)(=O)Nc2ccc(-c3cn4cccnc4n3)cc2)cc1[N+](=O)[O-] [CBK268936]	60.5
Cc1cc(C)nc(SCC(=O)Nc2cc(C(=O)O)cc([N+](=O)[O-])c2)n1 [CBK268937]	86.8
Cc1ccccc1NC(=O)COc1ccc(S(=O)(=O)N2CCCC2)cc1Cl [CBK268938]	95.2
Cn1c(=O)c2c(nc(NCCCO)n2C/C=C/c2ccccc2)n(C)c1=O [CBK268940]	87.2
CSc1nsc(SCC(=O)OC2CC3CCC2(C)C3(C)C)n1 (stereo not shown) [CBK268941]	92.5
Cc1sc(NC(=S)NC(=O)C(C)(C)C)c(C(N)=O)c1C [CBK268943]	97.1
Cc1ccc(CCC(=O)C(C#N)c2nc3ccccc3s2)o1 (stereo not shown) [CBK268944]	112
O=C(NC(=S)Nc1ccc(N2CCN(Cc3ccccc3F)CC2)cc1)c1ccco1 [CBK268946]	92.6
CSc1nsc(SCC(=O)Nc2ccc(OC(C)=O)cc2)n1 [CBK268948]	88.1
CCc1c(C)nc2n(c1=O)C(CS(=O)(=O)c1ccccc1)CS2 (stereo not shown) [CBK268949]	94.7
COc1ccc([N+](=O)[O-])cc1NC(=O)CSc1nnnn1C [CBK268950]	93
COc1ccc(/C(C#N)=C/c2ccc(-c3ccc(C(=O)O)cc3)o2)cc1OC [CBK268953]	108
CC(c1ccccc1)n1c(S)nnc1-c1cc(C(C)(C)C)n[nH]1 (stereo not shown) [CBK268954]	92.2
CCOC(=O)C1CCN(S(=O)(=O)c2ccc(OC)c(C)c2C)CC1 [CBK268955]	96.1
CSc1ncc(Cl)c(C(=O)Nc2sc3c(c2C(=O)NCC2CCCO2)CCC3)n1 (stereo not shown) [CBK268959]	95
O=C(c1ccc([N+](=O)[O-])cc1)n1nc(-c2cccnc2)nc1NCc1ccc(F)cc1 [CBK268962]	96.6

SMILES	viability at 28.5 h, 10 µM [%]
O=C(Nc1cccc(-c2cn3cccnc3n2)c1)c1cccc([N+](=O)[O-])c1 [CBK268963]	93
NC(=O)CSc1nnc(-c2cc3ccccc3o2)n1Cc1ccccc1 [CBK268964]	90.1
COc1ccc(CNc2nc(-c3cccnc3)nn2C(=O)c2ccc([N+](=O)[O-])cc2)cc1 [CBK268966]	98.9
O=C(O)CCNS(=O)(=O)c1ccc(I)cc1 [CBK268968]	111
CN1CCN(C(=O)CSc2nnc(COc3ccccc3)o2)CC1 [CBK268970]	85.4
CSc1ncc(Cl)c(C(=O)Nc2sc3c(c2C(=O)NCc2ccco2)CCCC3)n1 [CBK268971]	96.6
NS(=O)(=O)c1ccc(NC(=O)c2cc([N+](=O)[O-])ccc2N2CCOCC2)cc1 [CBK268972]	101
Cc1cc(C)c(C)c(OCC(=O)N(Cc2nc(-c3ccccc3)no2)C2CCCCC2)c1 [CBK268974]	104
Nc1nn(S(=O)(=O)c2cccc3nsnc23)cc1-c1ccc(Br)cc1 [CBK268975]	107
CSc1ncc(Cl)c(C(=O)Nc2sc3c(c2C(=O)NCc2ccccc2)CCCC3)n1 [CBK268976]	99.5
N#C/C(=C/c1cn(CC(=O)O)c2ccccc12)c1ccc(C(=O)O)cc1 [CBK268977]	111
NC(=O)CC1C(=O)N(c2ccc(F)cc2)C(=S)N1NC(=O)CCc1ccccc1 (stereo not shown) [CBK268978A]	108
Cc1occc1-c1nnc(SCC(=O)Nc2cccc3nsnc23)o1 [CBK268979]	89.5
Cc1ccc(NC(=O)C2CC=CCC2C(=O)O)cc1NC(=O)c1ccc(Cl)cc1 (stereo not shown) [CBK268980]	92.6
Cc1nn(CCCC(=O)Nc2sc3c(c2C#N)CCC(C(C)(C)C)C3)c(C)c1[N+](=O)[O-] (stereo not shown) [CBK268982]	103
Cc1cc(-c2nnc(SCC(=O)N3CCOCC3)o2)no1 [CBK268984]	103
O=C(O)CCc1ccc(-c2ccc(F)cc2)n1CC1CCCO1 (stereo not shown) [CBK268988]	86.5
COc1ccc(N2CCN(CC(=O)N3CCC(C(N)=O)CC3)CC2)cc1 [CBK268993]	96.6
CS(=O)(=O)N(CC(=O)Nc1ccc(S(=O)(=O)N2CCCC2)cc1)c1ccc2c(c1)OCO2 [CBK268995]	97.7
N#Cc1ccccc1CSc1nc(N2CCOCC2)nc(N2CCOCC2)n1 [CBK268998]	92.3
CN1CCN(C(=O)C2CCCN(S(=O)(=O)c3ccc(Br)cc3)C2)CC1 (stereo not shown) [CBK269006]	107
O=C(CSc1nnc(-c2cc(Br)ccc2O)[nH]1)NCCc1ccccc1 [CBK269007]	85.8

SMILES	viability at 28.5 h, 10 µM [%]
COc1cc(C2c3c(-c4cc(C)c(C)cc4O)n[nH]c3C(=O)N2CCO)cc(Br)c1O (stereo not shown) [CBK269009]	112
CCn1c2ccccc2c2cc(NC(=O)CSc3nnc(-c4ccoc4C)o3)ccc21 [CBK269010]	105
Cc1cc(C)n2nc(C(=O)NCc3ccccn3)cc2n1 [CBK269015]	89.3
CC(C)(C)c1ccc(O)c(NC(=S)NC(=O)c2cccc(OCc3ccccc3)c2)c1 [CBK269018]	97.3
COc1cc(C2NC(=O)N(CCc3ccccc3)C(c3ccccc3)=C2C(C)=O)ccc1O (stereo not shown) [CBK269024]	108
CCOC(=O)c1cnc(SCC(=O)N2c3ccccc3SC3C=CC=CC32)nc1N (stereo not shown) [CBK269029]	99.6
Cc1cccc(OCc2nnc(SCc3nc4ccccc4c(=O)[nH]3)o2)c1 [CBK269030]	98.7
O=S(=O)(N1CCCCC1)N1CCN(CC(O)COc2ccc3cc(Br)ccc3c2)CC1 (stereo not shown) [CBK269032]	106
NC(=O)CC1C(=O)N(c2ccc(F)cc2)C(=O)N1NC(=O)CCc1ccccc1 (stereo not shown) [CBK269033]	104
O=C(Nc1ccncc1)c1ccc2nc[nH]c2c1 [CBK269034]	93.2
Cc1cc(N2C(=O)CC(N3CCC(C(=O)N4CCOCC4)CC3)C2=O)no1 (stereo not shown) [CBK269035]	92.6
CN(C)c1nc(N(C)C)nc(N(C#N)S(=O)(=O)c2ccccc2Cl)n1 [CBK269036]	88.3
COc1cc(C(=S)N2CCN(C)CC2)ccc1OCC(N)=O [CBK269037]	84.7
O=C(NC(=S)Nc1ccc(-c2ccc(CO)o2)cc1)c1ccc2c(c1)OCCO2 [CBK269038]	82.9
Cc1ccc(N(CC(=O)NCC2CCCO2)S(=O)(=O)c2ccc(Cl)cc2)cc1 (stereo not shown) [CBK269039]	104
Cc1occc1-c1nnc(SCC(=O)Nc2c(C)n(C)n(-c3ccccc3)c2=O)o1 [CBK269042]	90.9
CC(=O)c1ccc(NC(=O)CSc2nc(O)cc(-c3ccccc3)n2)cc1 [CBK269048]	96
O=C(O)c1ccccc1-c1ccc(-c2cc(C(=O)O)c3cc(F)ccc3n2)o1 [CBK269051]	98.8
O=C(COc1ccc(S(=O)(=O)N2CCCCC2)cc1)NCc1ccncc1 [CBK269053]	92.5
